For 14 compounds, TGI results are on record in PubChem BioAssay (NCI).

Some test systems named below: CAKI-1 renal; MDA-MB-435; MOLT-4 leukemia; NCI-H23 lung; OVCAR-3 ovarian; RXF 393 renal; SF-539 CNS; SK-MEL-5 melanoma; T-47D breast; U251 CNS.
Holding throughout (test): growth of human tumour cells (NCI), 48 h

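Where inhibition never reached the appropriate level, the endpoint shown equals the highest concentration tested. Otherwise, values were interpolated linearly from a five-concentration, 48-hour dose response in 96-well plates. TGI marks complete inhibition of growth.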

In the case of `COC(=O)/C=C1\CCC(C)(C(=O)NS(=O)(=O)c2ccc(C)cc2)C1(C)C` (stereo unspecified), the TGI with CAKI-1 renal, in the experiment on MDA-MB-435, in the experiment on MOLT-4 leukemia, with NCI-H23 lung, with OVCAR-3 ovarian and in the experiment on RXF 393 renal was over 100 µM throughout. For the same compound, the TGI with SF-539 CNS, in the experiment with SK-MEL-5 melanoma, with T-47D breast and in the experiment with U251 CNS was over 100 µM throughout.
As to `CN(C)Cc1cc(O)c(O)c(CN(C)C)c1`, the TGI with CAKI-1 renal, with MDA-MB-435, in the experiment on MOLT-4 leukemia, in the experiment on NCI-H23 lung, with OVCAR-3 ovarian and with RXF 393 renal was over 100 µM each time. Also, the TGI in the experiment with SK-MEL-5 melanoma, in the experiment on T-47D breast and with U251 CNS was over 100 µM throughout.
For `Oc1ccc(SCc2cc(O)c(O)c(O)c2)cc1`, the TGI with CAKI-1 renal, in the experiment on MDA-MB-435, in the experiment on MOLT-4 leukemia, with NCI-H23 lung, in the experiment with OVCAR-3 ovarian and in the experiment with RXF 393 renal was over 100 µM throughout. Further, the TGI was over 100 µM with SF-539 CNS, 40.7 µM in the experiment on SK-MEL-5 melanoma, over 100 µM with T-47D breast and over 100 µM with U251 CNS.
Consider `Cc1ccc(C(C2C(=O)N(C)C(=O)N(C)C2=O)C(F)(F)C(=O)N(C)C)cc1` (stereo unspecified), for which the TGI with CAKI-1 renal, in the experiment on MDA-MB-435, with NCI-H23 lung, in the experiment on OVCAR-3 ovarian, with RXF 393 renal and in the experiment with SF-539 CNS was over 100 µM each time. The TGI in the experiment with SK-MEL-5 melanoma, in the experiment on T-47D breast and in the experiment with U251 CNS was over 100 µM throughout.
For `Fc1ccc(N=NN2CCCC2)cc1`, the TGI in the experiment with CAKI-1 renal, in the experiment on MDA-MB-435, in the experiment on MOLT-4 leukemia, in the experiment on NCI-H23 lung, in the experiment on OVCAR-3 ovarian and in the experiment with RXF 393 renal was over 100 µM throughout. Moreover, the TGI in the experiment on SF-539 CNS, in the experiment on SK-MEL-5 melanoma, in the experiment with T-47D breast and in the experiment with U251 CNS was over 100 µM throughout.
Take `C=CCNC(=O)NC1=CSC2=NC(=O)C3(NN12)c1ccccc1-c1ccccc13`: the TGI in the experiment on CAKI-1 renal, in the experiment on MDA-MB-435, in the experiment on MOLT-4 leukemia, in the experiment on NCI-H23 lung, with RXF 393 renal and in the experiment with SF-539 CNS was over 10 µM each time. Besides, the TGI with SK-MEL-5 melanoma and in the experiment on T-47D breast was over 10 µM each time.
For `O=c1c(C=Nc2ccc([N+](=O)[O-])cc2)c(O)n(-c2ccccc2)c(=O)n1-c1ccccc1`, the TGI with CAKI-1 renal, in the experiment with MDA-MB-435, in the experiment with MOLT-4 leukemia, in the experiment on NCI-H23 lung, in the experiment with OVCAR-3 ovarian and in the experiment on RXF 393 renal was over 100 µM in each case. In addition, the TGI in the experiment with SK-MEL-5 melanoma, in the experiment on T-47D breast and in the experiment with U251 CNS was over 100 µM in each case.
With `O=c1[nH]c(=O)n(Cc2ccccc2CO)cc1Sc1ccccc1`, the TGI in the experiment on CAKI-1 renal is 27.2 µM; in the experiment on MDA-MB-435, 45.2 µM; in the experiment on MOLT-4 leukemia, over 100 µM; in the experiment with NCI-H23 lung, 39.9 µM; in the experiment with OVCAR-3 ovarian, 42.2 µM; in the experiment on RXF 393 renal, 80.9 µM. Also, the TGI is 93.9 µM with SF-539 CNS, 26.7 µM in the experiment with SK-MEL-5 melanoma, over 100 µM with T-47D breast and over 100 µM in the experiment on U251 CNS.
Regarding `Cc1cc(-c2nc3ccccc3s2)ccc1NC(=O)[C@H](C)N`, the TGI with CAKI-1 renal was 24 µM; in the experiment on MDA-MB-435, 19.9 µM; in the experiment with MOLT-4 leukemia, 37.8 µM; in the experiment on NCI-H23 lung, 33.9 µM; in the experiment on OVCAR-3 ovarian, 24.7 µM; in the experiment with RXF 393 renal, 25.4 µM. In addition, the TGI was 26.1 µM in the experiment on SK-MEL-5 melanoma, 21.4 µM in the experiment with T-47D breast and 33.9 µM in the experiment with U251 CNS.
Turning to `Cc1nc2ccc(S(=O)(=O)O)cc2c(=O)n1-c1ccc(C(=O)NN2C(=O)C(Cl)C2c2ccccc2O)cc1` (stereo unspecified), the TGI in the experiment with CAKI-1 renal, in the experiment with MDA-MB-435, in the experiment on MOLT-4 leukemia, in the experiment with NCI-H23 lung, in the experiment on OVCAR-3 ovarian and in the experiment with RXF 393 renal was over 100 µM throughout. Besides, the TGI in the experiment on SF-539 CNS, in the experiment with SK-MEL-5 melanoma, in the experiment on T-47D breast and in the experiment on U251 CNS was over 100 µM throughout.
Consider `O=C(OCc1ccccc1)C1(N2CN(C3(C(=O)OCc4ccccc4)CCCC3)CN(C3(C(=O)OCc4ccccc4)CCCC3)C2)CCCC1`, for which the TGI with CAKI-1 renal, in the experiment on MDA-MB-435, in the experiment on MOLT-4 leukemia, in the experiment with NCI-H23 lung, with OVCAR-3 ovarian and in the experiment on RXF 393 renal was over 10 µM each time. The TGI in the experiment with SF-539 CNS, in the experiment with SK-MEL-5 melanoma, in the experiment with T-47D breast and in the experiment on U251 CNS was over 10 µM throughout.
`[N-]=[N+]=NCc1cccc(Nc2cc(=O)[nH]c(=O)[nH]2)c1`: the TGI in the experiment with CAKI-1 renal, in the experiment on MDA-MB-435, with MOLT-4 leukemia, in the experiment with NCI-H23 lung, with OVCAR-3 ovarian and in the experiment on RXF 393 renal was over 100 µM throughout. Further, the TGI in the experiment on SF-539 CNS, with SK-MEL-5 melanoma and in the experiment with T-47D breast was over 100 µM throughout.
For `COc1ccc2c(c1)N=C1CSC(c3ccccc3Cl)N1C2` (stereo unspecified), the TGI with CAKI-1 renal was 24.6 µM; with MDA-MB-435 it was 27.7 µM; in the experiment on MOLT-4 leukemia, 15.7 µM; in the experiment with NCI-H23 lung, 49.9 µM; with RXF 393 renal it was 25.4 µM; in the experiment on SF-539 CNS, 22.6 µM. For the same compound, the TGI was 31.4 µM in the experiment on SK-MEL-5 melanoma, over 100 µM with T-47D breast and 66.8 µM in the experiment on U251 CNS.
Take `O=c1cc(N2CCCC2)[nH]c(=O)n1-c1cccc(C(F)(F)F)c1`: the TGI with CAKI-1 renal, with MDA-MB-435, with MOLT-4 leukemia, with NCI-H23 lung, in the experiment with OVCAR-3 ovarian and in the experiment on RXF 393 renal was over 100 µM throughout. Moreover, the TGI in the experiment with SF-539 CNS, in the experiment with T-47D breast and in the experiment with U251 CNS was over 100 µM each time.
